Assay results reported in patent publication US9365541B2, “Compounds for use in the treatment of parasitic diseases” (IRBM—SCIENCE PARK S.P.A., priority 2012, dated 2016).

Legend:
human HDAC1 = biological target: T1, human HDAC1 (Homo sapiens, UniProt Q13547); test: Homo sapiens HDAC1 inhibition assay (Fluor-de-Lys, enzymatic); assay type: biochemical; settings: human HDAC enzymatic assay; read-out: hHDAC IC50
T1 construct: made in house; host or cells: HeLa (ATCC CCL-2), mammalian cells
Procedure, shortened: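 Product developed with trypsin developer containing 2 μM TSA to stop the reaction; fluorescence measures deacetylase activity, inversely related to inhibition.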

[1] = test system: Plasmodium falciparum 3D7; test: P. falciparum growth inhibition assay (Pf-LDH); assay type: cell-based; settings: Plasmodium falciparum, Erythrocyte; P. falciparum 3D7 infected erythrocytes, 72 h incubation, PfLDH readout
Procedure, shortened: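 P. falciparum 3D7 (chloroquine-sensitive) at 0.25% parasitemia and 2% hematocrit was incubated with compound for 72 h at 37° C under 4% CO2/3% O2/93% N2. After freeze-thaw, PfLDH activity was read at 650 nm with lactate/APAD/NBT/diaphorase mix (pH 8.0).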

T1 sequence (Q13547 whole entry): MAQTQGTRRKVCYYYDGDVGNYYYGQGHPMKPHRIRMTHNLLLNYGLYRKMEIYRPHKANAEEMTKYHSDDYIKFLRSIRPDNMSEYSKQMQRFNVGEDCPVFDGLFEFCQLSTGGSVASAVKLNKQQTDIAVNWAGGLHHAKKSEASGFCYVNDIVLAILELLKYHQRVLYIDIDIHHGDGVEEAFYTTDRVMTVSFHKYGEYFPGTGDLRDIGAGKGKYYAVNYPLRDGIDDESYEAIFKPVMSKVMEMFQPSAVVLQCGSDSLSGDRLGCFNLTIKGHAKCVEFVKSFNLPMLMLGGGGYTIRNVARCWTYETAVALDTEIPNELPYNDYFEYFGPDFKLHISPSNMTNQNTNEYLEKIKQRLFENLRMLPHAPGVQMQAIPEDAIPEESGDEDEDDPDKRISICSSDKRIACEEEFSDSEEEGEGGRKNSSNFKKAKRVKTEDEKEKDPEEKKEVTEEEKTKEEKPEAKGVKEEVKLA

SMILES | IC50 (human HDAC1) | EC50 [1]
CNC(=O)CCCCC[C@H](NC(=O)C1CC(=O)Nc2ccccc21)c1ncc(-c2ccc(-n3cccn3)cc2)[nH]1 (stereo partly drawn) [Entry 61, N-((S)-1-(5-(4-(1H-pyrazol-1-yl)phenyl)-1H-imidazol-2-yl)-7-(methylamino)-7-oxoheptyl)-2-oxo-1,2,3,4-tetrahydroquinoline-4-carboxamide] | 1 to 5 µM | 1 to 5 µM
CNC(=O)CCCCC[C@H](NC(=O)Cn1ccnn1)c1ncc(-c2cc3ccccc3nc2OC)[nH]1 [Entry 6, (S)-7-(2-(1H-1,2,3-triazol-1-yl)acetamido)-7-(5-(2-methoxyquinolin-3-yl)-1H-imidazol-2-yl)-N-methylheptanamide] | 1 to 5 µM | 1 to 5 µM
CNC(=O)CCCCC[C@H](NC(=O)Cc1ncccn1)c1ncc(-c2ccc3ccncc3c2)[nH]1 [Entry 207] | > 5 µM | 1 to 5 µM
CNC(=O)CCCCC[C@H](NC(=O)Cn1ccnn1)c1ncc(-c2ccc(-n3cccn3)cc2)[nH]1 [Entry 62, (S)-7-(2-(1H-1,2,3-triazol-1-yl)acetamido)-7-(5-(4-(1H-pyrazol-1-yl)phenyl)-1H-imidazol-2-yl)-N-methylheptanamide] | > 5 µM | > 5 µM
CNC(=O)CCCCC[C@H](NC(=O)C1CCCN(C)C1)c1ncc(-c2cc3ccccc3nc2OC)[nH]1 (stereo partly drawn) [Entry 33, N-((S)-1-(5-(2-methoxyquinolin-3-yl)-1H-imidazol-2-yl)-7-(methylamino)-7-oxoheptyl)-1-methylpiperidine-3-carboxamide] | < 1 µM | 1 to 5 µM
CNC(=O)CCCCC[C@H](NC(=O)c1nnc(C)o1)c1ncc(-c2cc3ccccc3nc2OC)[nH]1 [Entry 77, (S)-N-(1-(5-(2-methoxyquinolin-3-yl)-1H-imidazol-2-yl)-7-(methylamino)-7-oxoheptyl)-5-methyl-1,3,4-oxadiazole-2-carboxamide] | 1 to 5 µM | 1 to 5 µM
CNC(=O)CCCCC[C@H](NC(=O)CCc1c(C)nc2ncnn2c1C)c1ncc(-c2ccc(-n3cccn3)cc2)[nH]1 [Entry 38, (S)-7-(5-(4-(1H-pyrazol-1-yl)phenyl)-1H-imidazol-2-yl)-7-(3-(5,7-dimethyl-[1,2,4]triazolo[1,5-a]pyrimidin-6-yl)propanamido)-N-methylheptanamide] | 1 to 5 µM | 1 to 5 µM
CNC(=O)CCCCC[C@H](NC(=O)c1nnc(C)s1)c1ncc(-c2ccc3ccccc3c2)[nH]1 [Entry 84, (S)-5-methyl-N-(7-(methylamino)-1-(5-(naphthalen-2-yl)-1H-imidazol-2-yl)-7-oxoheptyl)-1,3,4-thiadiazole-2-carboxamide] | 1 to 5 µM | > 5 µM
CNC(=O)CCCCC[C@H](NC(=O)c1cccc2nccnc12)c1ncc(-c2ccc3ccccc3c2)[nH]1 [Entry 88, (S)-N-(7-(methylamino)-1-(5-(naphthalen-2-yl)-1H-imidazol-2-yl)-7-oxo-heptyl)quinoxaline-5-carboxamide] | > 5 µM | > 5 µM
CNC(=O)CCCCC[C@H](NC(=O)C1CN(C)C1)c1ncc(-c2cc3ccccc3nc2OC)o1 [Entry 71, (S)-N-(1-(5-(2-methoxyquinolin-3-yl)oxazol-2-yl)-7-(methylamino)-7-oxoheptyl)-1-methylazetidine-3-carboxamide] | < 1 µM | < 1 µM
CNC(=O)CCCCC[C@H](NC(=O)OCc1ccccc1)c1ncc(-c2ccc(-c3ccn(C)n3)cc2)[nH]1 [Entry 182, (S)-benzyl(1-(5-(4-(1-methyl-1H-pyrazol-3-yl)phenyl)-1H-imidazol-2-yl)-7-(methylamino)-7-oxoheptyl)carbamate] | 1 to 5 µM | 1 to 5 µM
CNC(=O)CCCCC[C@H](NC(=O)c1cncs1)c1ncc(-c2ccc3cnccc3c2)[nH]1 [Entry 138, (S)-N-(1-(5-(isoquinolin-6-yl)-1H-imidazol-2-yl)-7-(methylamino)-7-oxoheptyl)thiazole-5-carboxamide] | 1 to 5 µM | < 1 µM
CNC(=O)CCCCC[C@H](NC(=O)c1cncs1)c1ncc(-c2ccc3sccc3c2)[nH]1 [Entry 161, (S)-N-(1-(5-(benzo[b]thiophen-5-yl)-1H-imidazol-2-yl)-7-(methylamino)-7-oxoheptyl)thiazole-5-carboxamide] | 1 to 5 µM | 1 to 5 µM
CNC(=O)CCCCC[C@H](NC(=O)C12CCN(CC1)CC2)c1ncc(-c2ccc(Cl)c(C)c2)[nH]1 [Entry 181, (S)-N-(1-(5-(4-chloro-3-methylphenyl)-1H-imidazol-2-yl)-7-(methylamino)-7-oxo-heptyl)quinuclidine-4-carboxamide] | 1 to 5 µM | > 5 µM
CNC(=O)CCCCC[C@H](NC(=O)CCn1ccnc1)c1ncc(-c2cc3ccccc3nc2OC)[nH]1 [Entry 27, (S)-7-(3-(1H-imidazol-1-yl)propanamido)-7-(5-(2-methoxyquinolin-3-yl)-1H-imidazol-2-yl)-N-methylheptanamide] | 1 to 5 µM | 1 to 5 µM
CNC(=O)CCCCC[C@H](NC(=O)c1cncs1)c1ncc(-c2cccc(CN)c2)[nH]1 [Entry 35, (S)-N-(1-(5-(3-(amino-methyl)phenyl)-1H-imidazol-2-yl)-7-(methylamino)-7-oxoheptyl)thiazole-5-carboxamide] | 1 to 5 µM | < 1 µM
CNC(=O)CCCCC[C@H](NC(=O)CCN1CCCCC1)c1ncc(-c2ccc(C(F)(F)F)cc2)[nH]1 [Entry 101, (S)-N-methyl-7-(3-(piperidin-1-yl)propanamido)-7-(5-(4-(trifluoro-methyl)phenyl)-1H-imidazol-2-yl)heptanamide] | > 5 µM | 1 to 5 µM
CNC(=O)CCCCC[C@H](NC(=O)c1cncs1)c1ncc(-c2ccc3nc(C(F)(F)F)ccc3c2)[nH]1 [Entry 19, (S)-N-(7-(methylamino)-7-oxo-1-(5-(2-(trifluoro-methyl)quinolin-6-yl)-1H-imidazol-2-yl)heptyl)thiazole-5-carboxamide] | 1 to 5 µM | 1 to 5 µM
CNC(=O)CCCCC[C@H](NC(=O)c1cncs1)c1ncc(-c2cc3ccccc3n(C)c2=O)[nH]1 [Entry 140, (S)-N-(1-(5-(1-methyl-2-oxo-1,2-dihydroquinolin-3-yl)-1H-imidazol-2-yl)-7-(methylamino)-7-oxoheptyl)thiazole-5-carboxamide] | 1 to 5 µM | 1 to 5 µM
CNC(=O)CCCCC[C@H](NC(=O)C12CC3CC(CC(C3)C1)C2)c1ncc(-c2ccc(C(F)(F)F)cc2)[nH]1 [Entry 100] | > 5 µM | 1 to 5 µM
CNC(=O)CCCCC[C@H](NC(=O)c1cnc(C)s1)c1ncc(-c2ccc3ccncc3c2)[nH]1 [Entry 49, (S)-N-(1-(5-(isoquinolin-7-yl)-1H-imidazol-2-yl)-7-(methylamino)-7-oxoheptyl)-2-methylthiazole-5-carboxamide] | < 1 µM | < 1 µM
CNC(=O)CCCCC[C@H](NC(=O)C1(C)CCCO1)c1ncc(-c2ccc(-c3ccn(C)n3)cc2)[nH]1 (stereo partly drawn) [Entry 123, 2-methyl-N-((S)-1-(5-(4-(1-methyl-1H-pyrazol-3-yl)phenyl)-1H-imidazol-2-yl)-7-(methylamino)-7-oxoheptyl)tetra-hydrofuran-2-carboxamide] | > 5 µM | > 5 µM
CNC(=O)CCCCC[C@H](NC(=O)Cc1csc2nccn12)c1ncc(-c2ccc(-c3ccn(C)n3)cc2)[nH]1 [Entry 146, (S)-7-(2-(imidazo[2,1-b]thiazol-3-yl)acetamido)-N-methyl-7-(5-(4-(1-methyl-1H-pyrazol-3-yl)phenyl)-1H-imidazol-2-yl)heptanamide] | 1 to 5 µM | 1 to 5 µM
CNC(=O)CCCCC[C@H](NC(=O)Cc1ncccn1)c1ncc(-c2ccc(-c3ccn(C)n3)cc2)[nH]1 [Entry 211] | > 5 µM | > 5 µM
CNC(=O)CCCCC[C@H](NC(=O)C1CN(C)C1)c1ncc(-c2cc3ccccc3[nH]c2=O)[nH]1 [Entry 18, (S)-1-methyl-N-(7-(methylamino)-7-oxo-1-(5-(2-oxo-1,2-dihydroquinolin-3-yl)-1H-imidazol-2-yl)heptyl)azetidine-3-carboxamide] | 1 to 5 µM | > 5 µM
CNC(=O)CCCCC[C@H](NC(=O)c1cc(C)n(C)n1)c1ncc(-c2ccc(-c3ccn(C)n3)cc2)[nH]1 [Entry 216, (S)-1,5-dimethyl-N-(1-(5-(4-(1-methyl-1H-pyrazol-3-yl)phenyl)-1H-imidazol-2-yl)-7-(methylamino)-7-oxoheptyl)-1H-pyrazole-3-carboxamide] | > 5 µM | 1 to 5 µM
CNC(=O)CCCCC[C@H](NC(=O)Cc1csc(-c2ccccc2)n1)c1ncc(-c2cc3ccccc3nc2OC)[nH]1 [Entry 185] | 1 to 5 µM | 1 to 5 µM
CNC(=O)CCCCC[C@H](NC(=O)Cn1ccc(C)n1)c1ncc(-c2ccc(-c3ccn(C)n3)cc2)[nH]1 [Entry 171, (S)-N-methyl-7-(2-(3-methyl-1H-pyrazol-1-yl)acetamido)-7-(5-(4-(1-methyl-1H-pyrazol-3-yl)phenyl)-1H-imidazol-2-yl)heptanamide] | > 5 µM | > 5 µM
CNC(=O)CCCCC[C@H](NC(=O)c1cc(C(C)C)on1)c1ncc(-c2ccc3ccncc3c2)[nH]1 [Entry 189, (S)-5-isopropyl-N-(1-(5-(isoquinolin-7-yl)-1H-imidazol-2-yl)-7-(methylamino)-7-oxoheptyl)isoxazole-3-carboxamide] | 1 to 5 µM | 1 to 5 µM
CNC(=O)CCCCC[C@H](NC(=O)c1cncs1)c1ncc(-c2ccc(-c3ccn[nH]3)cc2)[nH]1 [Entry 221, (S)-N-(1-(5-(4-(1H-pyrazol-5-yl)phenyl)-1H-imidazol-2-yl)-7-(methylamino)-7-oxoheptyl)thiazole-5-carboxamide] | 1 to 5 µM | < 1 µM
